US10463644B2, “Uses of sesquiterpene lactone compounds and their derivatives in drugs preparation” (ACCENDATECH, priority 2013, dated 2019)
Where two headings read alike, the source gives them in different places.

Legend:
[1] = test system: PGE2 secreted by synoviocyte; test: Content of PGE2 in culture supernatant of synoviocyte of RA model rats given test compound; assay type: in vivo; conditions: rat RA model, dose 30 mg/kg.2d; normal control 8.34 ± 1.29, NaCl 32.44 ± 10.32
Procedure, shortened: (§1)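 Values reflect mediator secretion by synoviocytes taken from arthritic rats dosed at 30 mg/kg.2d. Normal and NaCl groups served as references.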

[2] = test system: IL-1β secreted by synoviocyte; test: Content of IL-1β in culture supernatant of synoviocyte of RA model rats given test compound; assay type: in vivo; conditions: rat RA model, dose 30 mg/kg.2d; normal control 0.16 ± 0.034, NaCl 0.49 ± 0.136
Procedure, shortened: as §1

[3] = test system: normal cells; test: Survival rate of normal cells after test compound is added (flow cytometry, Annexin V-FITC/PI); assay type: cell-based; conditions: 18 h
Procedure, shortened: (§2)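 Patient specimens (e.g. AML, CD34+/CD38+ stem-cell marker) separated on Ficoll; mononuclear cells at 1×10^6/mL in serum-free IMDM treated 18 h with compound. Cells stained for stem-cell markers, then Annexin V-FITC/PI, and apoptosis measured by flow cytometry within one hour.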

[4] = test system: cancer cells; test: Survival rate of cancer cells after test compound is added (flow cytometry, Annexin V-FITC/PI, clinical specimen); assay type: cell-based, patient; conditions: Homo sapiens, 18 h, read-out: Survival rate (%) All cells (Stem cells and ordinary cells)
Procedure, shortened: as §2

[5] = test system: cancer stem cells; test: Survival rate of cancer stem cells after test compound is added (flow cytometry, Annexin V-FITC/PI, clinical specimen); assay type: cell-based, patient; conditions: Homo sapiens, 18 h
Procedure, shortened: as §2

[6] = read-out: Survival rate (%) All cells (Stem cells and ordinary cells)
[7] = read-out: Survival rate (%) Stem cells
[8] = Head and neck squamous cell carcinomas

## C=C1C(=O)O[C@@H]2[C@@H]3[C@@H](CC[C@@]3(C)O)C(=C)CC[C@@H]12 [Compound 48]
[1]
  Content of PGE2 in culture supernatant of synoviocyte (x ± s): 26.65 ± 2.45 ng/mL
[2]
  Content of IL-1β in culture supernatant of synoviocyte (x ± s): 0.38 ± 0.046 ng/mL
[3]; [6]
  viability at 10 µM: 92%
  viability at 20 µM: 91%
[3]; [7]
  viability at 10 µM: 91%
  viability at 20 µM: 89%
[4]; AML
  viability at 10 µM: 59%
  viability at 20 µM: 48%
[4]; Brain glioma
  viability at 10 µM: 66%
  viability at 20 µM: 54%
[4]; Brain tumor
  viability at 10 µM: 78%
  viability at 20 µM: 69%
[4]; Breast cancer
  viability at 10 µM: 76%
  viability at 20 µM: 58%
[4]; CLL
  viability at 10 µM: 67%
  viability at 20 µM: 48%
[4]; CML
  viability at 10 µM: 69%
  viability at 20 µM: 51%
[4]; Children hepatoblastoma
  viability at 10 µM: 75%
  viability at 20 µM: 68%
[4]; Colon adenocarcinoma
  viability at 10 µM: 66%
  viability at 20 µM: 56%
[4]; Colorectal cancer
  viability at 10 µM: 79%
  viability at 20 µM: 67%
[4]; Gastric cancer
  viability at 10 µM: 66%
  viability at 20 µM: 48%
[4]; Gastrointestinal tumor
  viability at 10 µM: 73%
  viability at 20 µM: 62%
[4]; Glioma
  viability at 10 µM: 78%
  viability at 20 µM: 74%
[4]; [8]
  viability at 10 µM: 73%
  viability at 20 µM: 68%
[4]; Laryngeal cancer
  viability at 10 µM: 76%
  viability at 20 µM: 66%
[4]; Liver cancer
  viability at 10 µM: 82%
  viability at 20 µM: 73%
[4]; Lung adenocarcinoma
  viability at 10 µM: 77%
  viability at 20 µM: 64%
[4]; Lung cancer
  viability at 10 µM: 72%
  viability at 20 µM: 67%
[4]; Malignant melanoma
  viability at 10 µM: 88%
  viability at 20 µM: 86%
[4]; Nasopharynx cancer
  viability at 10 µM: 64%
  viability at 20 µM: 59%
[4]; Ovarian cancer
  viability at 10 µM: 68%
  viability at 20 µM: 61%
[4]; Pancreatic cancer
  viability at 10 µM: 68%
  viability at 20 µM: 62%
[4]; Prostate cancer
  viability at 10 µM: 75%
  viability at 20 µM: 62%
[4]; Retinoblastoma
  viability at 10 µM: 82%
  viability at 20 µM: 69%
[4]; Skin cancer
  viability at 10 µM: 62%
  viability at 20 µM: 47%
[5]; AML
  viability at 10 µM: 47%
  viability at 20 µM: 38%
[5]; Brain glioma
  viability at 10 µM: 52%
  viability at 20 µM: 43%
[5]; Brain tumor
  viability at 10 µM: 66%
  viability at 20 µM: 53%
[5]; Breast cancer
  viability at 10 µM: 54%
  viability at 20 µM: 47%
[5]; CLL
  viability at 10 µM: 46%
  viability at 20 µM: 38%
[5]; CML
  viability at 10 µM: 51%
  viability at 20 µM: 46%
[5]; Children hepatoblastoma
  viability at 10 µM: 68%
  viability at 20 µM: 56%
[5]; Colon adenocarcinoma
  viability at 10 µM: 58%
  viability at 20 µM: 49%
[5]; Colorectal cancer
  viability at 10 µM: 66%
  viability at 20 µM: 55%
[5]; Gastric cancer
  viability at 10 µM: 51%
  viability at 20 µM: 39%
[5]; Gastrointestinal tumor
  viability at 10 µM: 57%
  viability at 20 µM: 52%
[5]; Glioma
  viability at 10 µM: 69%
  viability at 20 µM: 60%
[5]; [8]
  viability at 10 µM: 64%
  viability at 20 µM: 58%
[5]; Laryngeal cancer
  viability at 10 µM: 63%
  viability at 20 µM: 55%
[5]; Liver cancer
  viability at 10 µM: 74%
  viability at 20 µM: 61%
[5]; Lung adenocarcinoma
  viability at 10 µM: 67%
  viability at 20 µM: 55%
[5]; Lung cancer
  viability at 10 µM: 61%
  viability at 20 µM: 54%
[5]; Malignant melanoma
  viability at 10 µM: 82%
  viability at 20 µM: 76%
[5]; Nasopharynx cancer
  viability at 10 µM: 57%
  viability at 20 µM: 48%
[5]; Ovarian cancer
  viability at 10 µM: 56%
  viability at 20 µM: 45%
[5]; Pancreatic cancer
  viability at 10 µM: 55%
  viability at 20 µM: 49%
[5]; Prostate cancer
  viability at 10 µM: 62%
  viability at 20 µM: 51%
[5]; Retinoblastoma
  viability at 10 µM: 62%
  viability at 20 µM: 54%
[5]; Skin cancer
  viability at 10 µM: 46%
  viability at 20 µM: 39%
